Assay results published in ChEMBL document CHEMBL4425102, “Structure-Based Design of Tetrahydroisoquinoline-7-carboxamides as Selective Discoidin Domain Receptor 1 (DDR1) Inhibitors” (J Med Chem, 2016).
Blank lines part the entries; values can stand above or below the molecule they belong to. Active and inactive are the calls of the source. No cut-off for these calls is given here.

Assays:
[1] = Cmax in Sprague-Dawley rat at 20 mg/kg, po measured after 0.03 to 24 hrs by HPLC/MS analysis; assay type: ADME, organism-based; design: dose 20 mg/kg, route oral; settings: in vivo
Mus musculus [2] = assay: Protection against bleomycin-induced lung fibrosis in C57BL/6 mouse assessed as decrease in hydroxyproline level in lung administered via oral gavage bid 14 days post bleomycin treatment measured on day 28 […]; assay type: functional, organism-based
[3] = biological target: T1, Muscle, skeletal receptor tyrosine-protein kinase (Homo sapiens, UniProt O15146); assay: Binding affinity to wild type human partial length MUSK (553 to 869 residues) expressed in bacterial expression system preincubated for 1 hr measured after 30 mins by qPCR method
T1 sequence (O15146 whole entry): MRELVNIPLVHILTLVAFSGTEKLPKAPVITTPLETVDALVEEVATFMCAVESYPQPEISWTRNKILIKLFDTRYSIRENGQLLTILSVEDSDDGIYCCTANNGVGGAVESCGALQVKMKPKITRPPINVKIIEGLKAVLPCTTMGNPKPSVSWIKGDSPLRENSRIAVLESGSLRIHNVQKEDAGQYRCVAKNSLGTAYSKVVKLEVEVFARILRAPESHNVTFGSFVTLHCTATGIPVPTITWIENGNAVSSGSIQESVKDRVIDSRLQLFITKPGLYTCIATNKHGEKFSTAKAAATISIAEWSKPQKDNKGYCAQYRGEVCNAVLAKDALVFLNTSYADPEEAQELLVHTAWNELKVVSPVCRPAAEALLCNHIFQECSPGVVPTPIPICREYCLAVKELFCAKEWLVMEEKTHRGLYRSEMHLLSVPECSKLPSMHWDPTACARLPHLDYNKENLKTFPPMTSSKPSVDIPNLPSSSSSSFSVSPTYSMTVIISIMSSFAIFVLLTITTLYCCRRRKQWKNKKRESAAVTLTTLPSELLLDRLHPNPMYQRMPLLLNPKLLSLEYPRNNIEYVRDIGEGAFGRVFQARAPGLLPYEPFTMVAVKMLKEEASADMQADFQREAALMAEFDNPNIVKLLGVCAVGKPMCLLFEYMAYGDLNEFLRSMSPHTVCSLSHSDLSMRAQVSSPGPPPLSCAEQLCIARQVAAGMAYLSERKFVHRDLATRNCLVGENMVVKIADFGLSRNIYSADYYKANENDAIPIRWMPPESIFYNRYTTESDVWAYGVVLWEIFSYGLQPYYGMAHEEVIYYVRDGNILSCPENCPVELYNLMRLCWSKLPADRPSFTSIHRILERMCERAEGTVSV

[4] = Tmax in ICR mouse at 4 mg/kg, po by HPLC/MS analysis; assay type: ADME, organism-based; settings: in vivo
[5] = Oral bioavailability in Sprague-Dawley rat at 20 mg/kg measured after 0.03 to 24 hrs by HPLC/MS analysis; assay type: ADME, organism-based; settings: in vivo
[6] = Tmax in Sprague-Dawley rat at 20 mg/kg, po by HPLC/MS analysis; assay type: ADME, organism-based; settings: in vivo
[7] = AUC (0 to infinity) in Sprague-Dawley rat at 4 mg/kg, iv measured after 0.03 to 24 hrs by HPLC/MS analysis; assay type: ADME, organism-based; design: dose 4 mg/kg, time infinity, route intravenous; settings: in vivo
[8] = biological target: Tyrosine-protein kinase ABL1 (Homo sapiens, UniProt P00519); assay: Inhibition of human full length recombinant His-tagged ABL1 expressed in baculovirus infected Sf9 insect cells using tyrosine 2 peptide as substrate preincubated for 1 hr measured after 2 hrs in presence of ATP by FRET-based Z'-Lyte assay
Chain of Tyrosine-protein kinase ABL1 (P00519 whole entry): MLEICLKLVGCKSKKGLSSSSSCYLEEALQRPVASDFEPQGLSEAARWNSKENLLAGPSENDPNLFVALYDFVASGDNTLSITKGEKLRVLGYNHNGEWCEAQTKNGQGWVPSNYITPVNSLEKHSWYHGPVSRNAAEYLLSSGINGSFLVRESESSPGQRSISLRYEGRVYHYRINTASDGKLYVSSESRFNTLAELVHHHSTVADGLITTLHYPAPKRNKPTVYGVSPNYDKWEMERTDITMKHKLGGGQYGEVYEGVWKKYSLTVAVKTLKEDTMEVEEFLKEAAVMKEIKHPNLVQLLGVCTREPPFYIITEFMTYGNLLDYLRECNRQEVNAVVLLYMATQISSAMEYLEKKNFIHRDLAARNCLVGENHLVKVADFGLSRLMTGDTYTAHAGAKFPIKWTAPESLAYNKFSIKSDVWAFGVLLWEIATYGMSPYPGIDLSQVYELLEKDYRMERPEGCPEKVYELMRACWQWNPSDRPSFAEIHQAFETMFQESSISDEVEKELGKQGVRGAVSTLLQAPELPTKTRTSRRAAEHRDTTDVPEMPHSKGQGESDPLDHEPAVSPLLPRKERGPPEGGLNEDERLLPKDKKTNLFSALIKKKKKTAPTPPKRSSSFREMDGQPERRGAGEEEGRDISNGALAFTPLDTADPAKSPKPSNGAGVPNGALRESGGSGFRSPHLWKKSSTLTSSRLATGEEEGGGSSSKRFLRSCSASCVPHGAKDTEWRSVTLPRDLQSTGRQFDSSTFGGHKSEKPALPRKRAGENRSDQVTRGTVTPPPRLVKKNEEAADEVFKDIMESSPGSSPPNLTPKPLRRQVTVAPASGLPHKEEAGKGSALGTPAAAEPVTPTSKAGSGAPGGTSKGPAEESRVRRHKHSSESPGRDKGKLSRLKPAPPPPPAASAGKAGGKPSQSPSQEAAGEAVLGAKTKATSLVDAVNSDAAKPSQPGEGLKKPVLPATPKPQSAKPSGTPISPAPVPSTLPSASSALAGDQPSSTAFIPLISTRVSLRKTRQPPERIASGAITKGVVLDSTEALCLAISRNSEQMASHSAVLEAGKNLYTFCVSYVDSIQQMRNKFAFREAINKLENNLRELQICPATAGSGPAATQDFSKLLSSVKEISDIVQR

Mus musculus [9] = assay: Protection against bleomycin-induced lung fibrosis in C57BL/6 mouse assessed as decrease in fibronectin level in lung at 10 to 50 mg/kg administered via oral gavage bid 14 days post bleomycin treatment measured on day 28 by immunoblot analysis; assay type: functional, organism-based
[10] = Half life in Sprague-Dawley rat at 4 mg/kg, iv by HPLC/MS analysis; assay type: ADME, organism-based; settings: in vivo
[11] = Cmax in ICR mouse at 1 mg/kg, iv measured after 5 mins to 24 hrs by HPLC/MS analysis; assay type: ADME, organism-based; design: dose 1 mg/kg, route intravenous; settings: in vivo
[12] = Cmax in Sprague-Dawley rat at 4 mg/kg, iv measured after 0.03 to 24 hrs by HPLC/MS analysis; assay type: ADME, organism-based; design: dose 4 mg/kg, route intravenous; settings: in vivo
[13] = AUC (0 to infinity) in ICR mouse at 1 mg/kg, iv measured after 5 mins to 24 hrs by HPLC/MS analysis; assay type: ADME, organism-based; design: dose 1 mg/kg, time infinity, route intravenous; settings: in vivo
[14] = Oral bioavailability in ICR mouse at 4 mg/kg measured after 15 mins to 24 hrs by HPLC/MS analysis; assay type: ADME, organism-based; settings: in vivo
[15] = Cmax in ICR mouse at 4 mg/kg, po measured after 15 mins to 24 hrs by HPLC/MS analysis; assay type: ADME, organism-based; design: dose 4 mg/kg, route oral; settings: in vivo
[16] = AUC (0 to infinity) in ICR mouse at 4 mg/kg, po measured after 15 mins to 24 hrs by HPLC/MS analysis; assay type: ADME, organism-based; design: dose 4 mg/kg, route oral, time infinity; settings: in vivo
[17] = AUC (0 to infinity) in Sprague-Dawley rat at 20 mg/kg, po measured after 0.03 to 24 hrs by HPLC/MS analysis; assay type: ADME, organism-based; design: dose 20 mg/kg, route oral, time infinity; settings: in vivo
Mus musculus [18] = assay: Protection against bleomycin-induced lung fibrosis in C57BL/6 mouse assessed as decrease in alpha-smooth muscle actin level in lung at 10 to 50 mg/kg administered via oral gavage bid 14 days post bleomycin treatment measured on day 28 by immunoblot analysis; assay type: functional, organism-based
Ephrin type-A receptor 8 = biological target: T2, Ephrin type-A receptor 8 (Homo sapiens, UniProt P29322); assay: Binding affinity to wild type human partial length EPHA8 (608 to 920 residues) expressed in bacterial expression system preincubated for 1 hr measured after 30 mins by qPCR method
T2 sequence (P29322 whole entry): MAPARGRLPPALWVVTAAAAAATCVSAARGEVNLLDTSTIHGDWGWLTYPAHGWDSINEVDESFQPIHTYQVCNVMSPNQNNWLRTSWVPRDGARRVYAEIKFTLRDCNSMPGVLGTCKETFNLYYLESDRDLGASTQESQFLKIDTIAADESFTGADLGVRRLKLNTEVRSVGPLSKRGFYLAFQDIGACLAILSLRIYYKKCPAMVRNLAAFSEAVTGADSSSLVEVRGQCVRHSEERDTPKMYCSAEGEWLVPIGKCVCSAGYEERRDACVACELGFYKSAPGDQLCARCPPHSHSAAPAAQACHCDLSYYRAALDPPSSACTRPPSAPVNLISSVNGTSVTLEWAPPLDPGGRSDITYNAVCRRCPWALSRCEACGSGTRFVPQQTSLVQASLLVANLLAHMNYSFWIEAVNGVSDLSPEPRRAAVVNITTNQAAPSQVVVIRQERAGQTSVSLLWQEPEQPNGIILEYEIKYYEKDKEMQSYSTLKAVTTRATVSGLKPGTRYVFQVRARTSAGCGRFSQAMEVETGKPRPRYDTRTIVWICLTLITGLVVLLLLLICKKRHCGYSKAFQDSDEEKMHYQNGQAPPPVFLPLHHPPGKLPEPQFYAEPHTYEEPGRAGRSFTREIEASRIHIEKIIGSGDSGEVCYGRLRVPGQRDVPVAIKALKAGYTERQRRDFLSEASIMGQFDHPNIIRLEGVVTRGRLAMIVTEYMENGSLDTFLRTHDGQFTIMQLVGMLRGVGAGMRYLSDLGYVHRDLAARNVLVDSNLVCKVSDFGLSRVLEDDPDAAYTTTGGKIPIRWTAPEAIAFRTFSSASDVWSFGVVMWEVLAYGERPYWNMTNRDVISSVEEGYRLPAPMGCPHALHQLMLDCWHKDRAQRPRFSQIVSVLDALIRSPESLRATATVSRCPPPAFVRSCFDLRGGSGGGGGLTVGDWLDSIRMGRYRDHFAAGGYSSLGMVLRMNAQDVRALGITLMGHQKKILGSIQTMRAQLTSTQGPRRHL

Mus musculus [19] = assay: Protection against bleomycin-induced lung fibrosis in C57BL/6 mouse assessed as increase in alveolar spaces administered via oral gavage bid 14 days post bleomycin treatment measured on day 28 by Massons trichrome staining; assay type: functional, organism-based
[20] = biological target: Epithelial discoidin domain-containing receptor 1 (Homo sapiens, UniProt Q08345); assay: biochemical
Chain of Epithelial discoidin domain-containing receptor 1 (Q08345 whole entry, the tested form may be a part): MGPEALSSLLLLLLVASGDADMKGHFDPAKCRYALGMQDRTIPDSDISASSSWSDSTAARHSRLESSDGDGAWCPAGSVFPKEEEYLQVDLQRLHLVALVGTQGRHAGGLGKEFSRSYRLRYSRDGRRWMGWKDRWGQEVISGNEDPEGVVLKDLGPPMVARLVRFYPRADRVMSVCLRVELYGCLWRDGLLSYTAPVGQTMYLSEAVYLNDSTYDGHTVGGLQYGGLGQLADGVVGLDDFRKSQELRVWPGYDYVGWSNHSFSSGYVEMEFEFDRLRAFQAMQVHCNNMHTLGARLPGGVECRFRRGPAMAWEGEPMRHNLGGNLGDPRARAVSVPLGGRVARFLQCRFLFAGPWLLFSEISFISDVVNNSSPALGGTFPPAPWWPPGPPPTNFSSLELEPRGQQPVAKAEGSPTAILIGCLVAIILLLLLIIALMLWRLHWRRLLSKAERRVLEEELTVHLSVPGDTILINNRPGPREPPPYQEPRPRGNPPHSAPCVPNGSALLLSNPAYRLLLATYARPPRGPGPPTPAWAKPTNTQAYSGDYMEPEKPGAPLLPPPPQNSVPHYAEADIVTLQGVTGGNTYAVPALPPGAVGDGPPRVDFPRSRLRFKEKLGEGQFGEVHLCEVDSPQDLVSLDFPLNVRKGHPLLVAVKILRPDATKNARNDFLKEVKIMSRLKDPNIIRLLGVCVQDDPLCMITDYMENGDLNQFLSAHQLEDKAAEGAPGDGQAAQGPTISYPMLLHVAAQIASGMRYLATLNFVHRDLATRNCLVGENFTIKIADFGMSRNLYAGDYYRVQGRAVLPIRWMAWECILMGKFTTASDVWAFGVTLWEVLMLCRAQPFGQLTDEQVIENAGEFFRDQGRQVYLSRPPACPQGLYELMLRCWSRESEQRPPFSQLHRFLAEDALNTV

Structure (SMILES): CC(C)[C@@H]1CN(c2cncnc2)Cc2cc(C(=O)Nc3cc(CN4CCN(C)CC4)cc(C(F)(F)F)c3)ccc21
IC50 [20]: > 3 µM
IC50 [8]: > 10 µM

Structure (SMILES): CN1CCN(Cc2cc(NC(=O)c3ccc4c(c3)CN(c3ccccc3)CC4)cc(C(F)(F)F)c2)CC1
IC50 [20]: > 3 µM
IC50 [8]: > 10 µM

Second part, led by results:

Cmax [1]: 342 ng/mL
Kd [3]: 0.53 µM
Tmax [4]: 0.5 h
bioavailability [5]: 66.8%
Tmax [6]: 1 h
AUC(0-inf) [7]: 236 ng·h/mL
IC50 [8]: > 10 µM
half-life [10]: 1.5 h
Cmax [11]: 2250 ng/mL
Cmax [12]: 473 ng/mL
AUC(0-inf) [13]: 1210 ng·h/mL
bioavailability [14]: 41.6%
Cmax [15]: 2190 ng/mL
AUC(0-inf) [16]: 2550 ng·h/mL
AUC(0-inf) [17]: 788 ng·h/mL
Kd (Ephrin type-A receptor 8): 0.55 µM
Structure (SMILES): Cc1cn(-c2cc(NC(=O)c3ccc4c(c3)CN(c3cncnc3)C[C@@H]4C)cc(C(F)(F)F)c2)cn1
Activity (Mus musculus [2]): Dose-dependent effect
Activity (Mus musculus [9]): Active
Activity (Mus musculus [18]): Active
Activity (Mus musculus [19]): Dose-dependent effect

IC50 [8]: > 10 µM
Structure (SMILES): Cc1cn(-c2cc(NC(=O)c3ccc4c(c3)CN(c3cncnc3)C[C@H]4C)cc(C(F)(F)F)c2)cn1

IC50 [20]: > 1 µM
IC50 [8]: > 10 µM
Structure (SMILES): CC(C)[C@H]1CN(c2cncnc2)Cc2cc(C(=O)Nc3cc(CN4CCN(C)CC4)cc(C(F)(F)F)c3)ccc21
